According to patent US20080138834A1, “Cellular antagonists of GPCR physiology” (Institute Pasteur Korea, priority 2006, published 2008):
“Also recorded” adds a separate entry of the source. Where two headings read alike, the source gives them in different places.

What was measured:
HeLa cells = assay: Housekeeping endocytosis assay (BODIPY-FL dextran internalization); type: cell-based
[1] = test system: M1 muscarinic acetylcholine receptor (M1AR); assay: Agonist-induced M1AR endocytosis in polarized MDCK cells; type: cell-based; conditions: 10 μM compound, vs untreated agonist stimulated control
Protocol: Sensitivity of GPCR internalization to kinase inhibitors acting on ETAR endocytosis. (a) Fully polarized MDCK cells expressing the M1AR were treated with 100 nM carbachol, DMSO, or compounds then fixed and stained with antibodies against the M1AR epitope tag (green) or the GP130 apical plasma marker (red). Cells were pretreated with compounds: 10 μM RO 31 8220, 10 μM Erbstatin A, 10 μM H-89, with 100 nM agonist, agonist alone or DMSO. Scale bar: 20 μm. (b) HEK293T cells expressing a human kappa Opioid receptor fusion to the green fluorescent protein were treated with 10 μM Gö 6976, 10 μM Erbstatin A, 10 μM H-89, 10 μM KT-5720 with 300 nM agonist, agonist alone or DMSO. Scale bar 20 μm. (c) Quantification of kappa Opioid receptor internalization (endosomes/cell) after compound treatment and agonist treatment.
If the involvement of second messenger kinases in agonist induced endocytosis of the ETAR was a generic feature of Gq coupled receptor activation, it may be expected that the kinase inhibitors affecting ETAR endocytosis may have effects on related receptors or related receptors in other cell lines. The kinase inhibitors that disrupted agonist induced ETAR endocytosis were assayed on agonist-induced endocytosis of the Gq/11 coupled M1 muscarinic acetylcholine receptor (M1AR). […]

[2] = test system: ETAR: GFP expressing cells; assay: Single cell visual screening: red fluorescent dextran internalization in ETAR:GFP expressing cells; type: cell-based; conditions: 10 μM compound, 10 min red fluorescent dextran
Protocol: Single cell differential screening. […] (b) 10 μM Erbstatin A. (c) 10 μM H-89 (d) DMSO (e) 40 nM endothelin-1 alone. Confocal images are from a 1 μm Z section. […] Scale bar 5 μm.
The effect of the 3 kinase inhibitors affecting ETAR on receptor activation and housekeeping endocytosis were simultaneously imaged in ETAR: GFP expressing cells by internalization of red fluorescent dextran (FIG. 3). […] Thus, inhibition of protein kinase A and C second messenger activated kinases potently altered ETAR GPCR internalization but left housekeeping endocytosis unaffected.

cAMP = cAMP production after ET-1 stimulation, indirect ELISA; type: cell-based; conditions: for effect on intra-cellular cAMP after ET-1 stimulation: 10 μM compound, 40 nM ET-1
Protocol: cAMP production requires sequential G-protein activation.
All fine chemicals were purchased from Sigma-Aldrich. Fluorophores and their reactive forms were purchased from Molecular Probes (Eugene, USA). DRAQ5 was from BioStatus (Shepshed, UK). 40 kDa BODIPY-F1-dextran was synthesized from amino dextran using standard protocols. […] Kinase and phosphatase inhibitors were purchased as 95-99% pure 10 mM stock solutions in dimethylsulfoxide or water (Biomol Hamburg, Germany). Stock solutions and formatted assay plates were stored at −20° C. cAMP was measured by indirect ELISA (R & D systems, MN USA) following the manufacturers protocol for cAMP acetylation, and a cAMP standard.
GPCRs can couple to multiple G-proteins and switching between G-proteins is generally mediated by protein phosphorylation^36-38. We assessed the importance of Gq coupling and PKC activity in the generation of intra-cellular cAMP through Gs following agonist stimulation.

[3] = test system: human kappa Opioid receptor; type: cell-based
rat thoracic aorta = assay: Ex-vivo rat thoracic aorta constriction-relaxation model; conditions: 10 μM compound 30 min, then 40 nM endothelin; normalized to noradrenalin contraction
Protocol: As previously described, male rats (Sprague-Dawley) weighing 300 to 400 g were anesthetized with sodium pentobarbital (50 mg/kg i.p.), and thoracic aorta was removed, cleaned of fat and connective tissue placed in Krebs bicarbonate solution (118 mM NaCl; 4.7 mM KCl; 25 mM NaHCO3; 2.5 mM CaCl2; 1.2 mM KH2PO4; 1.2 mM MgSO4; 11 mM glucose) bubbled with 95% O2 and 5% CO2^39,40. The whole aorta was cut along a close spiral to produce a strip of 5 to 6 cm long. The strip was mounted on a Grass force displacement transducer at a tension of 2 grams and placed in a 25 ml chamber maintained at 34° C. Following mounting of aorta strip on transducer, noradrenalin was added to a final concentration of 5 μM and increase of tension-constriction was recorded for 20 min. Subsequently, the noradrenalin was washed with 16 chamber volumes (400 ml) until tension returned to 2 grams. […] Tension was recorded throughout the experiment. […]
To correlate the effect of kinase inhibitors that perturb ETAR intracellular pathway and cAMP production to a physiological relevance we have examined compound effect(s) on the ex-vivo rat thoracic aorta constriction-relaxation model (^39, 40). […] Contractile responses were assessed after aortal strips were treated with 10 μM Gö6976, 10 μM Erbstatin A or 10 μM H-89 for 30 minutes followed by treatment with Endothelin. […]

[4] = 10 μM compound, fluorescent dextran uptake

## Cn1cc(C2=C(c3cn(CCCSC(=N)N)c4ccccc34)C(=O)NC2=O)c2ccccc21 [Ro 31-8220]
HeLa cells; [4]
  effect on housekeeping endocytosis (number of endosomes): None of these compounds had a measurable effect
HeLa cells; 10 μM compound, fluorescent dextran uptake, listed as Ro 31 8220
  effect on housekeeping endocytosis (number of endosomes): no significant effect
[1]
  agonist-induced M1AR endocytosis: unaffected
[2]
  housekeeping endocytosis, single cell imaging: unaffected
cAMP
  effect on intra-cellular cAMP after ET-1 stimulation: blocked cAMP production

## CN(C)CCCn1cc(C2=C(c3c[nH]c4ccccc34)C(=O)NC2=O)c2ccccc21 [GF 109203X]
HeLa cells
  effect on housekeeping endocytosis (integrated intensity per cell): reduced
  effect on housekeeping endocytosis (number of endosomes): reduced the number of endosomes; also recorded: blocked

## Cc1cc(O)c2c(=O)c3c(O)cc(O)c4c5c(O)cc(O)c6c(=O)c7c(O)cc(C)c8c1c2c(c34)c(c78)c65 [hypericine]
HeLa cells
  housekeeping endocytosis compared to control: 0.2 fold

## CCCCCCOC(=O)[C@]1(O)C[C@@H]2O[C@@]1(C)n1c3ccccc3c3c4c(c5c6ccccc6n2c5c31)C(=O)NC4 [KT5720]
[3]
  effect on kOPr internalization: pronounced stimulation of receptor uptake

## CC(C)(C)c1cc(/C=C(\C#N)C(N)=S)cc(C(C)(C)C)c1O [AG-879]
HeLa cells; 10 μM compound, data not shown
  effect on housekeeping endocytosis (integrated intensity per cell): reduced
HeLa cells; [4]
  effect on housekeeping endocytosis (number of endosomes): reduced the number of endosomes

## CCCCCCCCCCCCCCCC(=O)OC(CC(=O)O)C[N+](C)(C)C.[Cl-] (stereo not drawn) [Palmitoyl DL carnitine chloride]
HeLa cells; [4]
  effect on housekeeping endocytosis (number of endosomes): no significant effect

## CC(C)(C)c1cc(C=C(C#N)C#N)cc(C(C)(C)C)c1O [tyrphostin 9]
HeLa cells; 10 μM compound, data not shown
  effect on housekeeping endocytosis (integrated intensity per cell): reduced
HeLa cells; [4]
  effect on housekeeping endocytosis (number of endosomes): reduced the number of endosomes

## O=S(=O)(NCCNC/C=C/c1ccc(Br)cc1)c1cccc2cnccc12 [H-89]
[3]
  effect on kOPr internalization: moderate
HeLa cells; [4]
  effect on housekeeping endocytosis (number of endosomes): None of these compounds had a measurable effect
[1]
  agonist-induced M1AR endocytosis: unaffected
Rat thoracic aorta
  endothelin dependent aortal strip contraction vs endothelin alone: significantly lower constriction
[2]
  housekeeping endocytosis, single cell imaging: unaltered
cAMP
  effect on intra-cellular cAMP after ET-1 stimulation: markedly increased cAMP
cAMP; PKA inhibition with H-89, endothelin stimulated
  increase of cellular cAMP: two-fold

## Cn1c2ccccc2c2c3c(c4c5ccccc5n(CCC#N)c4c21)CNC3=O [Gö 6976]
Rat thoracic aorta
  endothelin dependent aortal strip contraction vs endothelin alone: increased contraction

## CC1CNCCN1S(=O)(=O)c1cccc2cnccc12 (stereo not shown) [H7]
HeLa cells; [4]
  effect on housekeeping endocytosis (number of endosomes): no significant effect

## CC(=O)c1c(O)c(C)c(O)c(Cc2c(O)c3c(c(C(=O)/C=C/c4ccccc4)c2O)OC(C)(C)C=C3)c1O [rottlerin]
HeLa cells
  effect on housekeeping endocytosis (number of endosomes): no effect

## CN[C@@H]1C[C@H]2O[C@@](C)([C@@H]1OC)n1c3ccccc3c3c4c(c5c6ccccc6n2c5c31)C(=O)NC4 [staurosporine]
HeLa cells; 10 μM compound, data not shown
  effect on housekeeping endocytosis (integrated intensity per cell): reduced
HeLa cells; [4]
  effect on housekeeping endocytosis (number of endosomes): reduced the number of endosomes; also recorded: inhibited

## CC[C@H](C)[C@H](NC(=O)[C@H](CC(=O)O)NC(=O)[C@H](CC(C)C)NC(=O)[C@H](Cc1c[nH]cn1)NC(=O)[C@@H]1CSSC[C@H](N)C(=O)N[C@@H](CO)C(=O)N[C@H]2CSSC[C@H](NC(=O)[C@H](CCC(=O)O)NC(=O)[C@H](CCCCN)NC(=O)[C@H](CC(=O)O)NC(=O)[C@H](CCSC)NC(=O)[C@H](CC(C)C)NC(=O)[C@H](CO)NC(=O)[C@H](CO)NC2=O)C(=O)N[C@@H](C(C)C)C(=O)N[C@@H](Cc2ccc(O)cc2)C(=O)N[C@@H](Cc2ccccc2)C(=O)N1)C(=O)N[C@H](C(=O)N[C@@H](Cc1c[nH]c2ccccc12)C(=O)O)[C@@H](C)CC [endothelin-1]
cAMP; 40 nM ET-1, after 10 min
  intra-cellular cAMP after stimulation with ET-1 alone: robust increase in intra-cellular cAMP
cAMP; endothelin stimulation
  time of peak in cAMP production following stimulation: 20 min
